Results reported in patent US20260263400A1, “COMPOUND COMPOSITION INCLUDING TRANEXAMIC ACID AND TRETINOIN” (Nanjing Indetek Laboratory Co., Ltd., priority 2023, published 2026).
“Also recorded” adds a separate entry of the source.

System: Guinea pig, Hartley-Dunkin

For `O=[N+]([O-])c1ccc(Cl)c([N+](=O)[O-])c1` [1-Chloro-2,4-dinitrobenzene], the “body weight compared with the negative control group” value (D15, D31, D38) was “male animals showed slow weight gain; also recorded: female animals showed no significant difference in body weight” and the “incidence of allergic reaction” value (after challenge) was 100%.
